Non-standard residues stand in square brackets, D forms with d. Residues, ends and D or L forms follow the SMILES beside them. Dip = N[C@H](C(=O)O)C(c1ccccc1)c1ccccc1
Experiments:
A375 cells = assay: TEM electron microscopy, ultrastructural changes; assay type: cell-based, human
Description: A375 cells were seeded at 1×10^5 cells per well in 6-well plates and allowed to grow for three days to optimize membrane structures in the culture, and the media was changed on the second day. Cells were washed twice in serum-free RPMI before being treated with LTX-315 dissolved in serum-free RPMI at 5, 10 and 25 μg/ml, with serum-free RPMI as a negative control. Cells were then washed with PBS twice before fixation for 24 hours in 4° C. with 4% formaldehyde and 1% gluteralaldehyde in a Hepes buffer at pH 7.8. Dehydration and post-fixation protocols included incubation in a 5% buffered tannic acid and incubation in a 1% osmium-reduced ferrocyanide. Ultrathin sections were prepared, and uranyl acetate (5%) and Reynolds's lead citrate were used for staining and contrasting. Samples were examined on a JEOL JEM-1010 transmission electron microscope, and images were taken with an Olympus Morada side-mounted TEM CCD camera (Olympus soft imaging solutions, GmbH, Germany).

K5627/Gleevec = assay type: cell-based, human; settings: resistant
Description: Tumor cells were grown as adherent monolayers or as suspensions at 37° C. in a humidified atmosphere (5% CO2, 95% air). The culture medium was RPMI 1640 containing 2 mM L-glutamine (Lonza, Belgium) and supplemented with 10% fetal bovine serum (FBS, Lonza). For experimental use, the adherent cells were detached from the culture flask by a 5-minute treatment with trypsin-versene (Lonza), diluted in Hanks' medium without calcium or magnesium (Lonza) and neutralized by addition of complete culture medium. Cells were counted in a hemocytometer and their viability was assessed by 0.25% trypan blue exclusion. […]
Three independent experiments were performed, each concentration being tested in quadruplicate. […] At the end of treatments, the cytotoxic activity was evaluated by a MTS assay (see § 3.3). […]
At the end of the cells treatment, 40 μl of a 0.22 μm filtered freshly combined solution of MTS (20 ml at 2 mg/ml, Ref G1111, Batch 235897, Exp 03/2009, Promega, Charbonnières, France) and PMS (1 ml at 0.92 mg/ml, Ref P9625, Batch 065K0961, Sigma) in Dulbecco's Phosphate Buffered Saline (DPBS, Ref 17-513Q, Batch 6MB0152, Cambrex), were added in each well. […] Absorbency (OD) were measured at 490 nm in each well using VICTOR^3TM 1420 multilabeled counter (Wallac, PerkinElmer, Courtaboeuf, France). […]

[1] = system: EMT-6 murine mammary carcinoma; assay: EMT-6 mammary carcinoma model, two-flank tumours; assay type: in vivo, mice
Description: The anti-PD-L1 antibody had the following characteristics: ref: BE0101, Bioxcell; clone 10F.9G2; reactivity: mouse; isotype: Rat IgG2b. LTX-315 was prepared at a dose of 0.5 mg/50 μL in 0.9% sodium chloride solution. Anti-PD-L1 antibody was prepared at a concentration in phosphate-buffered saline and was administered at a dose of 10 mg/kg. LTX-315 was injected into the tumour grafted on the right flank of the mice, anti-PD-L1 antibody was injected into the peritoneal cavity of the mice.
Induction of MET-6 tumours in mice: A first tumor was induced by subcutaneous injection of 1×10^6 of EMT-6 cells in 200 μL of RPMI 1640 into the right flank of Balb/C female mice. The day of tumor cell injection in the right flank was considered as DO. A second tumor was induced by subcutaneous injection of 1×10^5 of EMT-6 cells in 200 μL of RPMI 1640 into the left flank of Balb/C female mice. The day of tumor cell injection in the left flank was considered as D3.
Treatment schedule: Mice were randomized according to their body weight on D3 into four groups each of 5 mice (group 1) or 10 mice (groups 3, 5 and 7) using Vivo Manager® software (Biosystemes, Couternon, France). A statistical test (analysis of variance) was performed to test for homogeneity between groups. […]
Mouse monitoring: All study data, including mouse body weight measurements, tumour volume, clinical and mortality records, and treatment were scheduled and recorded on Vivo Manager® database (Biosystemes, Dijon, France). The viability and behaviour was recorded every day. Body weights were measured thrice a week. The length and width of the tumor was measured three times a week with calipers and the volume of the tumour was estimated by the following formula: tumour volume=(width2×length)/2 (SIMPSON-HERREN L. et al. Cancer Chemotherapy Rep., 54: 143, 1970).

## NCCCC[C@H](NC(=O)[C@@H](NC(=O)[C@H](Cc1c[nH]c2ccccc12)NC(=O)[C@H](CCCCN)NC(=O)[C@H](CCCCN)NC(=O)[C@H](Cc1c[nH]c2ccccc12)NC(=O)[C@H](Cc1c[nH]c2ccccc12)NC(=O)[C@H](CCCCN)NC(=O)[C@@H](N)CCCCN)C(c1ccccc1)c1ccccc1)C(N)=O [LTX-315, K-K-W-W-K-K-W-Dip-K-NH2] (H-KKWWKKW[Dip]K-NH2)
A375 cells; 3.5 μM
  cells with vacuolization: approximately 20%
A375 cells; 3.5 μM, 60 minutes
  number of necrotic cells: less than 5%
A375 cells; 17 μM, 60 min
  cells displaying vacuolization: 4%
  cells with necrotic morphology with loss of plasma membrane integrity: approximately 40%
K5627/Gleevec
  IC50: 2980 nM
[1]; LTX-315 0.5 mg i.t. Q1Dx3, anti-PD-L1 10 mg/kg IP Q2Dx6
  test mice surviving for more than 50 days after tumour induction: 30%
[1]; treated flank, day 52 or when sacrificed
  Proportion of Mice with total tumour regression, Right flank: 30%
[1]; untreated flank, day 52 or when sacrificed
  Proportion of Mice with total tumour regression, Left flank: 10%

— US12239686B2, “Immune checkpoint inhibitor combinations” (LYTIX BIOPHARMA AS, priority 2014, dated 2025)
